The subject of this test is MC-38-hPD-L1 tumor cells. Kind of test: Anti-tumor efficacy in MC-38-hPD-L1 models. Type of test: in vivo. The following applies: MC-38-hPD-L1, C57BL/6-hPD-1 mice; 20 mg/kg, IP, BIW; 19 days. How it is done: Materials required for the experiment: Antibody: PD-L1 antibody Durvalumab, Product specifications: 120 mg/2.4 mL(50 mg/mL), Lot No.: 041E17C, Manufacture: AstraZeneca, purchased from Hongkong Mingchuang Medical Limited, storage at 2-8° C. Experimental animal: 120 C57BL/6-hPD-1 mice, female, 6˜8 weeks old, 18˜21 g, purchased from Jiangsu Gem Pharmatech Co. Ltd. Formulation material: castor oil (Cremophor RH40), CAS No.: 61788-85-0, Lot No.: 29761847G0, purchased from Shanghai Xietai Chemical Co. Ltd.; β-cyclodextrin (SBE-β-CD), CAS No.: 128446-35-5, Lot No.: R1804474, purchased from Shanghai Shaoyuan Chemical Co. Ltd.; DMEM culture medium, CAS No.: 11995-065, Lot No.: 2025378, purchased from Gibco Co. Ltd.; PBS, Art. No.: SH30256.01, Lot No.: AB10141338, purchased from HyClone Co. Ltd.; Fetal bovine serum: CAS No.: 10099-141, Lot No.: 1966174C, purchased from Gibco Co. Ltd.; hygromycinB: CAS No.: 10687010, Lot No.: HY069-L12 purchased from Invitrogen.
Cell culture: The MC-38 tumor cells (NCI) were maintained in vitro as a monolayer culture in DMEM medium supplemented with 10% heat inactivated fetal bovine serum, 100 μg/mL hygromycinB at 37° C. in an atmosphere of 5% CO2 in air. The tumor cells were routinely subcultured three times weekly by trypsin-EDTA treatment. The cells growing to a confluency around 70%-80% were harvested and counted for tumor inoculation.
Tumor cell inoculation and group administration: The 100 uL cell suspension containing 1×10^6 MC-38-hPD-L1 tumor cells (cells suspended in base DMEM medium) was inoculated into right dorsal subcutaneous area in mice. 6 days after inoculation, 60 tumor-bearing mice with transplanted tumors ranging from 31.49 mm^3 to 110.26 mm^3 were selected, stratified randomization was used to group and start the administration on the day of grouping.
Preparation of test substances: Preparation of formulation: 800 mL of sterile water was added into the volumetric flask with magnetic stirring to have a vortex. 100 g of castor oil (Cremophor RH40) was added with a spoon slowly into the vortex and the solution was kept stirring. 200 g of β-cyclodextrin (SBE-β-CD) was added while the solution was kept stirring until the solution was clear, and the total volume was set to 1000 mL, which contained 10% (w/v) Cremophor RH40+20% (w/v) an aqueous solution of SBE-β-CD.
Preparation of Compound Suspension: 150.92 mg compound was weighed and 12.5 mL 10% (w/v) Cremophor RH40+20% (w/v) SBE-β-CD aqueous solution were added. The suspension solution with a concentration of 12.0 mg/mL was obtained by vortex for 2 minutes and ultrasound for 30 minutes. 5.0 mL of the compound suspension solution with concentration of 12.0 mg/mL was pipetted and 5.0 mL aqueous formulation solution was added. The suspension solution with a concentration of 6.0 mg/mL was obtained by vortex for 1 minute and sonicated by ultrasound for 5 minutes. 2.0 mL of the compound suspension solution with concentration of 6.0 mg/mL was pipetted and […] was added. The suspension solution with a concentration of 3.0 mg/mL was obtained by vortex for 1 minute and sonicated by ultrasound for 5 minutes. Compound suspension solution was prepared once a day.
Preparation of hPD-L1 antibody: 0.12 mL PD-L1 antibody Durvalumab (50 mg/mL) original solution was pipetted and divided into […] in 5 mL sterile centrifugal tube, which were packed with each containing 6.0 mg. They were stored in refrigerator at 4° C. Before administration, a raw solution containing 0.12 mL and 50 mg/mL was taken, and 2.88 mL 0.9% sodium chloride solution was added to make the solution thoroughly mixed. 3 mL Duvalumab solution with the concentration 2 mg/mL was obtained.
Procedure: The mice in the vehicle group were weighed and recorded in the electronic balance according to their numbers. […]

What is called TGI is the reduction of tumour growth relative to the control group. Read a low TGI as a weaker effect on the tumour.

As for Durvalumab [reference compound], the TGI worked out at 48.17% and the “Tumor Volume” value stood at 341.19 ± 56.59 mm^3.
